# BindingDB's records for patent US10954228 (The Trustees of The University of Pennsylvania, 2021)
# Molecular target: L-lactate dehydrogenase A chain (Homo sapiens, UniProt P00338)
# Test: Biochemical Assay
# Experimental: Test compounds were placed in a Greiner Bio-One (Monroe, N.C.) 1536-well black solid bottom assay plate. 200 millimolar (mM) Tris HCl, pH 7.4, 100 micromolar (μM) EDTA and 0.01% TWEEN-20, final concentration, was used as the assay buffer. The LDHA reagent was 2 nanomolar (nM) Human LDHA (Meridian Life Science, Inc., Memphis, Tenn.), final concentration, in assay buffer. The substrate reagent was 0.06 mM NADH and 0.2 mM sodium pyruvate, final concentration, in assay buffer. The resazurin/diaphorase coupling reagent was 0.037 mM resazurin and 0.133 milligrams per milliliter (mg/mL) diaphorase, final concentration, in assay buffer. The inhibition of LDHA activity was measured by fluorescence emission.
row,SMILES,IC50
1,"CC(C)c1ccc(-c2cc(-c3nn(-c4nc(C(=O)O)cs4)c(CC4CC4)c3Cc3ccc(S(N)(=O)=O)c(F)c3)ccc2F)cc1 [US10954228, Compound 199]",< 100 nM
2,"CN(C)c1ccc(-c2cc(-c3nn(-c4nc(C(=O)O)cs4)c(CC4CC4)c3Cc3ccc(S(N)(=O)=O)c(F)c3)ccc2F)cc1 [US10954228, Compound 190]",< 100 nM
3,"CC(C)c1ccc(-c2cccc(-c3nn(-c4nc(C(=O)O)cs4)c(CC4CC4)c3Cc3ccc(S(N)(=O)=O)c(F)c3)c2)nc1 [US10954228, Compound 218]",< 100 nM
4,"CC(C)(C)NC(=O)c1cc(-c2nn(-c3nc(C(=O)O)cs3)c(CC3CC3)c2Cc2ccc([S+](N)(=O)[O-])c(F)c2)ccc1F [US10954228, Compound 147]",< 100 nM
5,"CC(C)c1cnc(-c2cccc(-c3nn(-c4nc(C(=O)O)cs4)c(CC4CC4)c3Cc3ccc(S(N)(=O)=O)c(F)c3)c2)nc1 [US10954228, Compound 216]",< 100 nM
6,"Cc1ccc(C#Cc2cccc(-c3nn(-c4nc(C(=O)O)cs4)c(C4CC4C4CC4)c3Cc3ccc([S+](N)(=O)[O-])c(F)c3)c2)s1 (stereo not given) [US10954228, Compound 134]",100 to 1000 nM
7,"CC(C)(C)NC(=O)c1cccc(-c2nn(-c3nc(C(=O)O)cs3)c(CC3CC3)c2Cc2ccc([S+](N)(=O)[O-])cc2)c1 [US10954228, Compound 188]",< 100 nM
8,"NS(=O)(=O)c1ccc(Cc2c(-c3ccc(F)c(-c4cccc(F)c4)c3)nn(-c3nc(C(=O)O)cs3)c2CC2CC2)cc1F [US10954228, Compound 196]",< 100 nM
9,"CCC#Cc1cc(-c2nn(-c3nc(C(=O)O)cs3)c(CC3CC3)c2Cc2ccc([S+](N)(=O)[O-])c(F)c2)ccc1F [US10954228, Compound 109]",< 100 nM
10,"NS(=O)(=O)c1ccc(Cc2c(-c3cccc(C(=O)N4CCCC4)c3)nn(-c3nc(C(=O)O)cs3)c2CC2CC2)cc1 [US10954228, Compound 145]",< 100 nM
